We go through 33 molecules from patent publication US10913710B2, “Benzene disulfonamide for the treatment of cancer” (priority 2017, dated 2021).

SMILES strings stand for the structures.

The target in one data set is PDEδ (Homo sapiens (Human), UniProt O43924). As to the kind of experiment: Fluorescence polarization competition binding assay: displacement titration of labeled Atorvastatin probe for KD. The following applies: fluorescence polarization assay; activity classes; read-out: KD. How it is done:
Example D.2: Displacement Titrations of Labeled Atorvastatin-Probe for the Determination of KD Values
Displacement Titrations of Labeled Atorvastatin-Probe for the Determination of KD Values:
The purification was followed by size exclusion gel filtration on a Superdex 75 S26/60 column using buffer A (25 mM Tris-HCl, pH 7.5, 150 mM NaCl and 3 mM DTE).
In general terms: Fluorescence polarisation rises when a labelled molecule tumbles more slowly, as on binding a larger partner.

A further data set is described as follows: in vitro. The following applies: human, Caco-2, pH 6.5. How it is done: (§1) Caco-2 Permeability Assay:
(§2) The compound concentration was measured in the receiver as well as the donor well.

The next data set concerns Caco-2 cells. As to the kind of experiment: in vitro. Particulars: 10 μM, 2 hours, 37° C. How it is done:
as §1, §2

By Kd is commonly meant the equilibrium constant for the complex coming apart. Broadly, the Papp A→B is how fast a substance crosses the layer from the apical side. Low values mean poor permeation, high ones ready permeation. As a reminder, the Papp B→A is how fast a substance crosses the layer from the basolateral side. For orientation: efflux ratio means the permeability from basolateral to apical divided by that in the opposite direction, in the common usage. Consider `CNc1cc(CN(CC2CCNCC2)S(=O)(=O)c2ccc(S(=O)(=O)N(Cc3ccc(Cl)cc3)C3CCCC3)cc2)ccc1C(=O)O` [Compound 21, 4-(((4-(N-(4-chlorobenzyl)-N-cyclopentylsulfamoyl)-N-(piperidin-4-ylmethyl)phenyl)sulfonamido)methyl)-2-(methylamino)benzoic Acid], for which the Kd on PDEδ is 1 to 30 nM. In addition, in “in vitro”, the Papp A→B at 2 h, 10 µM turned out to be 0.4 ×10⁻⁶ cm/s; the Papp B→A at 2 h, 10 µM turned out to be 0.5 ×10⁻⁶ cm/s; the efflux ratio at 2 h, 10 μM is 1.1.
The like results for `O=S(=O)(c1ccc(S(=O)(=O)N(Cc2ccc(Cl)cc2)C2CCCC2)cc1)N(Cc1ccccc1)CC1CCNCC1` [Compound 44, N1-Benzyl-N4-(4-chlorobenzyl)-N4-cyclopentyl-N1-(piperidin-4-ylmethyl)benzene-1,4-disulfonamide] were, in that order, 1 to 30 nM, 0.6 ×10⁻⁶ cm/s, 0.6 ×10⁻⁶ cm/s and 0.9.
On to `CN(C)S(=O)(=O)c1ccc(S(=O)(=O)N(Cc2ccc(Cl)cc2)Cc2ccco2)cc1` [Compound 71, N1-(4-chlorobenzyl)-N1-(furan-2-ylmethyl)-N4,N4-dimethylbenzene-1,4-disulfonamide], for which the Kd at PDEδ was above 1000 nM.
The same measure, in the same setting: with `CC1CCCN(S(=O)(=O)c2ccc(S(=O)(=O)N(Cc3ccc4c(c3)OCO4)Cc3ccccc3F)cc2)C1` (centres unmarked) [Compound 72, N-(benzo[d][1,3]dioxol-5-ylmethyl)-N-(2-fluorobenzyl)-4-((3-methylpiperidin-1-yl)sulfonyl)benzenesulfonamide] the figure was 100 to 1000 nM.
On the same count and under the same terms, with `COc1ccc(CN(Cc2ccc(C)cc2)S(=O)(=O)c2ccc(S(=O)(=O)N(C)Cc3ccccc3)cc2)cc1` [Compound 73, N1-benzyl-N4-(4-methoxybenzyl)-N1-methyl-N4-(4-methylbenzyl)benzene-1,4-disulfonamide] the figure was 100 to 1000 nM; with `CN(Cc1ccccc1)S(=O)(=O)c1ccc(S(=O)(=O)N(Cc2ccc(Cl)cc2)Cc2ccco2)cc1` [Compound 74, N1-benzyl-N4-(4-chlorobenzyl)-N4-(furan-2-ylmethyl)-N1-methylbenzene-1,4-disulfonamide], above 1000 nM; with `COc1ccc(CN(Cc2ccc3c(c2)OCO3)S(=O)(=O)c2ccc(S(=O)(=O)NC3CCCCC3)cc2)cc1OC` [Compound 75, N1-(benzo[d][1,3]dioxol-5-ylmethyl)-N4-cyclohexyl-N1-(3,4-dimethoxybenzyl)benzene-1,4-disulfonamide], above 1000 nM.
The same measure, in the same setting: with `CCOc1ccccc1CN(Cc1ccco1)S(=O)(=O)c1ccc(S(=O)(=O)NC2CCCCC2)cc1` [Compound 76, N1-cyclohexyl-N4-(2-ethoxybenzyl)-N4-(furan-2-ylmethyl)benzene-1,4-disulfonamide] the figure was 100 to 1000 nM; with `O=S(=O)(NCC1CCCO1)c1ccc(S(=O)(=O)N(Cc2ccccc2)Cc2ccccc2F)cc1` (centres unmarked) [Compound 77, N1-benzyl-N1-(2-fluorobenzyl)-N4-((tetrahydrofuran-2-yl)methyl)benzene-1,4-disulfonamide], 100 to 1000 nM.
Turning to `O=S(=O)(c1ccc(S(=O)(=O)N(Cc2ccc(F)cc2)Cc2ccc(F)cc2)cc1)N1CCCCC1` [Compound 78, N,N-bis(4-fluorobenzyl)-4-(piperidin-1-ylsulfonyl)benzenesulfonamide], the Kd on PDEδ was in the range of 100 to 1000 nM.
With `CCOc1ccc(CN(CC2CCCO2)S(=O)(=O)c2ccc(S(=O)(=O)N3CCCCC3)cc2)cc1` (centres unmarked) [Compound 79, N-(4-ethoxybenzyl)-4-(piperidin-1-ylsulfonyl)-N-((tetrahydrofuran-2-yl)methyl)benzenesulfonamide], on PDEδ, the dissociation constant Kd was above 1000 nM.
With `O=S(=O)(c1ccc(S(=O)(=O)N(Cc2ccc(F)cc2)CC2CCCO2)cc1)N1CCCCC1` (centres unmarked) [Compound 80, N-(4-fluorobenzyl)-4-(piperidin-1-ylsulfonyl)-N-((tetrahydrofuran-2-yl)methyl)benzenesulfonamide], the Kd on PDEδ was 30 to 100 nM.
Turning to `COc1ccc(CN(Cc2ccccc2Cl)S(=O)(=O)c2ccc(S(=O)(=O)N3CCCCC3)cc2)cc1` [Compound 81, N-(2-chlorobenzyl)-N-(4-methoxybenzyl)-4-(piperidin-1-ylsulfonyl)benzenesulfonamide], the Kd at PDEδ fell in the range of 30 to 100 nM.
On the same count and under the same terms, with `O=S(=O)(c1ccc(S(=O)(=O)N(Cc2ccc(Cl)cc2)CC2CCCO2)cc1)N1CCCCC1` (centres unmarked) [Compound 82, N-(4-chlorobenzyl)-4-(piperidin-1-ylsulfonyl)-N-((tetrahydrofuran-2-yl)methyl)benzenesulfonamide] the figure was 100 to 1000 nM; with `CN(C1CCCCC1)S(=O)(=O)c1ccc(S(=O)(=O)N(Cc2ccc(F)cc2)C2CC2)cc1` [Compound 83, N1-cyclohexyl-N4-cyclopropyl-N4-(4-fluorobenzyl)-N1-methylbenzene-1,4-disulfonamide], 30 to 100 nM; with `COc1cccc(CN(Cc2ccco2)S(=O)(=O)c2ccc(S(=O)(=O)NCC3CCCO3)cc2)c1` (centres unmarked) [Compound 84, N1-(furan-2-ylmethyl)-N1-(3-methoxybenzyl)-N4-((tetrahydrofuran-2-yl)methyl)benzene-1,4-disulfonamide], 1 to 30 nM.
The same measure, in the same setting: the value for `CCOc1ccc(CN(Cc2ccc(OC)cc2)S(=O)(=O)c2ccc(S(=O)(=O)N3CCCCC3)cc2)cc1` [Compound 85, N-(4-ethoxybenzyl)-N-(4-methoxybenzyl)-4-(piperidin-1-ylsulfonyl)benzenesulfonamide] was 100 to 1000 nM; that for `O=S(=O)(c1ccc(S(=O)(=O)N(Cc2ccccc2)Cc2ccc(F)cc2)cc1)N1CCCC1` [Compound 86, N-benzyl-N-(4-fluorobenzyl)-4-(pyrrolidin-1-ylsulfonyl)benzenesulfonamide] was above 1000 nM.
On the same count and under the same terms, the value for `CCN(CC)S(=O)(=O)c1ccc(S(=O)(=O)N(Cc2ccc(F)cc2)Cc2cccc(OC)c2OC)cc1` [Compound 87, N1-(2,3-dimethoxybenzyl)-N4,N4-diethyl-N1-(4-fluorobenzyl)benzene-1,4-disulfonamide] was above 1000 nM.
In the case of `O=S(=O)(NCC1CCCO1)c1ccc(S(=O)(=O)N(Cc2ccc(F)cc2)C2CCCCC2)cc1` (centres unmarked) [Compound 88, N1-cyclohexyl-N1-(4-fluorobenzyl)-N4-((tetrahydrofuran-2-yl)methyl)benzene-1,4-disulfonamide], the Kd on PDEδ lay in the range of 100 to 1000 nM.
Still for that read-out and setting: with `CCOc1ccccc1CN(Cc1ccco1)S(=O)(=O)c1ccc(S(=O)(=O)N(CC)C2CCCCC2)cc1` [Compound 89, N1-cyclohexyl-N4-(2-ethoxybenzyl)-N1-ethyl-N4-(furan-2-ylmethyl)benzene-1,4-disulfonamide] the figure was 1 to 30 nM.
As for `O=S(=O)(NCc1ccccc1)c1ccc(S(=O)(=O)N(Cc2ccc(Cl)cc2)Cc2ccco2)cc1` [Compound 90, N1-benzyl-N4-(4-chlorobenzyl)-N4-(furan-2-ylmethyl)benzene-1,4-disulfonamide], the Kd on PDEδ is 100 to 1000 nM.
Regarding `CN(Cc1ccccc1)S(=O)(=O)c1ccc(S(=O)(=O)N(Cc2ccc(F)cc2)C2CCCC2)cc1` [Compound 91, N1-benzyl-N4-cyclopentyl-N4-(4-fluorobenzyl)-N1-methylbenzene-1,4-disulfonamide], the Kd at PDEδ was 30 to 100 nM.
As for `O=S(=O)(NC1CCCC1)c1ccc(S(=O)(=O)N(Cc2ccccc2)Cc2ccccn2)cc1` [Compound 92, N1-benzyl-N4-cyclopentyl-N1-(pyridin-2-ylmethyl)benzene-1,4-disulfonamide], the Kd on PDEδ lay in the range of 1 to 30 nM.
Same read-out and setting: with `O=S(=O)(NC1CCCC1)c1ccc(S(=O)(=O)N(Cc2ccc(F)cc2)Cc2ccc(F)cc2)cc1` [Compound 93, N1-cyclopentyl-N4,N4-bis(4-fluorobenzyl)benzene-1,4-disulfonamide] the figure was 100 to 1000 nM; with `COc1ccc(CN(Cc2ccc3c(c2)OCO3)S(=O)(=O)c2ccc(S(=O)(=O)N3CCCC(C)C3)cc2)cc1OC` (centres unmarked) [Compound 94, N-(benzo[d][1,3]dioxol-5-ylmethyl)-N-(3,4-dimethoxybenzyl)-4-((3-methylpiperidin-1-yl)sulfonyl)benzenesulfonamide], above 1000 nM; with `COc1ccc(CN(Cc2ccc(OC)c(OC)c2)S(=O)(=O)c2ccc(S(=O)(=O)N3CCCCC3)cc2)cc1` [Compound 95, N-(3,4-dimethoxybenzyl)-N-(4-methoxybenzyl)-4-(piperidin-1-ylsulfonyl)benzenesulfonamide], above 1000 nM.
The same measure, in the same setting: the value for `CN(Cc1ccccc1)S(=O)(=O)c1ccc(S(=O)(=O)N(Cc2ccccc2)Cc2ccccc2F)cc1` [Compound 96, N1,N4-dibenzyl-N1-(2-fluorobenzyl)-N4-methylbenzene-1,4-disulfonamide] was above 1000 nM.
Same read-out and setting: with `O=S(=O)(NC1CCCC1)c1ccc(S(=O)(=O)N(Cc2ccccc2)Cc2ccccc2Cl)cc1` [Compound 98, N1-benzyl-N1-(2-chlorobenzyl)-N4-cyclopentylbenzene-1,4-disulfonamide] the figure was 1 to 30 nM.
As for `O=S(=O)(NCC1CCCO1)c1ccc(S(=O)(=O)N(Cc2ccc(Cl)cc2)Cc2ccco2)cc1` (centres unmarked) [Compound 99, N1-(4-chlorobenzyl)-N1-(furan-2-ylmethyl)-N4-((tetrahydrofuran-2-yl)methyl)benzene-1,4-disulfonamide], the Kd on PDEδ was 100 to 1000 nM.
On the same count and under the same terms, with `O=S(=O)(NCc1ccccc1)c1ccc(S(=O)(=O)N(Cc2ccc(Cl)cc2)C2CCCC2)cc1` [Compound 100, N1-benzyl-N4-(4-chlorobenzyl)-N4-cyclopentylbenzene-1,4-disulfonamide] the figure was 30 to 100 nM.
In the case of `c1ccc(Cn2c(-c3ccc(OC[C@H](C4CCNCC4)n4c(-c5ccccc5)nc5ccccc54)cc3)nc3ccccc32)cc1` [Deltarasin, reference compound], in the data set with Caco-2 cells, the “Caco-2 pH 6.5/7.4 Papp A→B Arith. Mean” value was 1.0 10^−6 cm/s and the “Caco-2 pH 6.5/7.4 Papp B→A Arith. Mean” value is 5.1 10^−6 cm/s.
In the same order, the values of `Cc1ccc(-n2nc3c(=O)n(CCCC(=O)NCC(C)c4ccccc4)nc(C)c3c2C)cc1` (centres unmarked) [Deltazinone 1, reference compound] are 41.1 10^−6 cm/s and 25.1 10^−6 cm/s.
